Measurements published in PubChem BioAssay (NCI).
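Compound exposure: 48 hours, 5 concentrations, 96-well plates. GI50: concentration for 50% inhibition of growth. The concentration for full growth arrest is given as TGI.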

Tests used:
Assay in all cases: inhibition of tumour cell growth, NCI panel, 48 h
CAKI-1 renal = tested on: CAKI-1 renal
COLO 205 colon = tested on: COLO 205 colon
HCT-116 colon = tested on: HCT-116 colon
MALME-3M melanoma = tested on: MALME-3M melanoma
MDA-MB-435 = tested on: MDA-MB-435
OVCAR-3 ovarian = tested on: OVCAR-3 ovarian
SF-295 CNS = tested on: SF-295 CNS
SK-MEL-2 melanoma = tested on: SK-MEL-2 melanoma
SN12C renal = tested on: SN12C renal
SR leukemia = tested on: SR leukemia

| Structure (SMILES) | TGI (CAKI-1 renal) [µM] | TGI (COLO 205 colon) [µM] | TGI (HCT-116 colon) [µM] | TGI (MALME-3M melanoma) [µM] | TGI (MDA-MB-435) [µM] | TGI (OVCAR-3 ovarian) [µM] | TGI (SF-295 CNS) [µM] | TGI (SK-MEL-2 melanoma) [µM] | TGI (SN12C renal) [µM] | TGI (SR leukemia) [µM] | GI50 (CAKI-1 renal) [µM] | GI50 (COLO 205 colon) [µM] | GI50 (MALME-3M melanoma) [µM] | GI50 (MDA-MB-435) [µM] | GI50 (OVCAR-3 ovarian) [µM] | GI50 (SK-MEL-2 melanoma) [µM] | GI50 (SN12C renal) [µM] |
| --- | --- | --- | --- | --- | --- | --- | --- | --- | --- | --- | --- | --- | --- | --- | --- | --- | --- |
| OC(CCN1CCN(CCOC(c2ccc(F)cc2)c2ccc(F)cc2)CC1)c1ccc(Br)cc1 (stereo not drawn) | 5.71 | 3.84 | 7.84 | 4.39 | 6.82 | 9.66 | 9.73 | 18.8 | 7.12 | 4.13 | – | – | – | – | – | – | – |
| COc1ccc2c(c1)-c1nc(=S)n(CCN(C)C)c3ccc([N+](=O)[O-])c(c13)N2 | 7.61 | 5.97 | 1.56 | 2.49 | 7.82 | 19.3 | 18.3 | 24.3 | 2.05 | 2.07 | – | – | – | – | – | – | – |
| Cc1ccc2nc(Nc3ccccc3C)c(Nc3ccccc3C)nc2c1 | > 95.7 | 30.6 | 40.2 | 48.8 | > 94.2 | 52.3 | 52.3 | 31.7 | > 100 | > 100 | – | – | – | – | – | – | – |
| Fc1cccc(F)c1C1SCc2nc3cc(Cl)ccc3n21 (stereo not drawn) | > 65.9 | 36.6 | 37 | > 31.6 | > 100 | > 100 | > 70.2 | > 100 | > 100 | 65.7 | – | – | – | – | – | – | – |
| O=C1c2cc3c(cc2-c2c1c1cc(F)c(F)cc1c(=O)n2C[C@H](O)CO)OCO3 | 0.206 | 1.2 | – | 0.916 | 0.422 | 0.753 | – | 0.625 | 0.324 | > 100 | 0.0288 | 0.103 | 0.196 | 0.125 | 0.224 | 0.243 | 0.033 |
| CN(C)C(=O)/N=C1\SC(=Nc2ccccc2)C(=Nc2ccccc2)N1c1ccc([N+](=O)[O-])cc1 | > 100 | > 100 | > 100 | > 100 | > 100 | > 100 | > 100 | > 100 | > 100 | > 100 | – | – | – | – | – | – | – |
| Fc1ccc(OCc2ccc3nc(-c4ccccc4)c(Cl)nc3c2)cc1 | 60.6 | > 100 | > 100 | 35.9 | > 100 | > 100 | 50.3 | > 100 | > 100 | 40.8 | – | – | – | – | – | – | – |
| CSc1ncnc2c1cnn2Cc1cn(COCC(O)CO)nn1 (stereo not drawn) | > 100 | > 100 | > 100 | – | > 100 | > 100 | > 100 | > 100 | > 100 | > 100 | – | – | – | – | – | – | – |
| Cn1c2ccccc2c2c3c(=O)[nH][nH]c(=O)c3c3c4ccccc4n(C)c3c21 | > 100 | > 100 | > 100 | > 100 | > 100 | > 100 | > 100 | > 100 | > 100 | 0.252 | – | – | – | – | – | – | – |
| Cc1nn(C(=O)c2ccccc2O)c2c1C(c1ccc([N+](=O)[O-])cc1)SC(N)=N2 (stereo not drawn) | > 10 | > 10 | > 10 | > 10 | > 10 | 9.95 | > 10 | > 10 | > 10 | > 10 | – | – | – | – | – | – | – |
| C[C@@](Br)(C(=O)O)[C@H](Br)C(=O)O | > 100 | > 100 | > 100 | > 100 | > 100 | > 100 | > 100 | – | > 100 | – | – | – | – | – | – | – | – |
| COc1ccc(C(=C2C(=O)OC(=O)C2=C(C)C)c2ccc(OC)cc2)cc1 | > 100 | > 100 | > 100 | > 100 | > 100 | 47.5 | > 100 | > 100 | > 100 | > 100 | – | – | – | – | – | – | – |
| CCOC(=O)c1c(-c2ccc(OC)cc2)c(C#N)c(=S)n(C2OC(CO)C(O)C(O)C2O)c1C (stereo not drawn) | > 100 | > 100 | > 100 | > 100 | > 100 | > 100 | > 100 | > 100 | > 100 | > 100 | – | – | – | – | – | – | – |
| CC(C)NC(=O)OCc1c(COC(=O)NC(C)C)n(C)c2c1ccc1cc(Cl)c(Cl)cc12 | 12.6 | 22.8 | 24 | 22.7 | 19.5 | 31.1 | 30.8 | 32.2 | – | 30.6 | – | – | – | – | – | – | – |
| O/N=C/[C@H]1COC2(CCCCC2)O1 | – | > 100 | > 100 | > 100 | > 100 | > 100 | > 100 | > 100 | > 100 | – | – | – | – | – | – | – | – |
| CC(C)(C)C#CI1OC(=O)c2ccccc21 | 7.21 | 4.65 | 6.82 | 9.24 | 18.4 | 8.84 | 28.2 | 27 | 19 | 3.74 | – | – | – | – | – | – | – |
| CCOP(=O)(CC1OC(CO)C(O)C1O)OCC (stereo not drawn) | > 100 | > 100 | > 100 | > 100 | > 100 | > 100 | > 100 | > 100 | > 100 | > 100 | – | – | – | – | – | – | – |
| O=c1ccn([C@@H]2C=C(CO)[C@@H](O)[C@H]2O)c(=O)[nH]1 | > 625 | > 625 | > 625 | > 625 | – | > 625 | > 625 | > 625 | > 625 | – | – | – | – | – | – | – | – |
| Cc1ccc(S(=O)(=O)N2CCc3cc(O)c([N+](=O)[O-])cc32)cc1 | > 100 | > 100 | > 100 | > 100 | > 100 | – | > 100 | > 100 | > 100 | – | – | – | – | – | – | – | – |
| CCC(C)C(NC(=O)C(CCCC[N+](=N)N)NC(=O)C(CCCC[N+](=N)N)NC(=O)c1ccc(OC)cc1)C(=O)NC(CCCC[N+](=N)N)C(=O)N1CCCC1C(=O)NC(CCCCN)C(=O)NC(CC(C)C)C(N)=O (stereo not drawn) | > 100 | > 100 | > 100 | > 100 | > 100 | > 100 | > 100 | – | > 100 | > 100 | – | – | – | – | – | – | – |
| CC(=O)Nc1ccc2c(c1)nc1c3ccccc3ccn21 | > 100 | > 100 | > 100 | > 100 | > 100 | – | > 100 | > 100 | > 100 | > 100 | – | – | – | – | – | – | – |
